Square brackets hold non-standard residues; d marks the D form. Peptide text beside a SMILES is read from it. ξ: configuration not given here. Oic = O=C(O)[C@@H]1C[C@@H]2CCCC[C@@H]2N1; d2Nal = N[C@H](Cc1ccc2ccccc2c1)C(=O)O; Hyp = O=C(O)[C@@H]1C[C@@H](O)CN1; 2Thi = N[C@@H](Cc1cccs1)C(=O)O; Gly(N-cHex) = O=C(O)CNC1CCCCC1; ξαMeF = CC(N)(Cc1ccccc1)C(=O)O; Orn = NCCC[C@H](N)C(=O)O; βAla = NCCC(=O)O; Mpa = O=C(O)CCS
T1: human kinin B2R (Homo sapiens, UniProt P30411)
T1 construct: expressed in transfected cells
T1 sequence (P30411 1-391): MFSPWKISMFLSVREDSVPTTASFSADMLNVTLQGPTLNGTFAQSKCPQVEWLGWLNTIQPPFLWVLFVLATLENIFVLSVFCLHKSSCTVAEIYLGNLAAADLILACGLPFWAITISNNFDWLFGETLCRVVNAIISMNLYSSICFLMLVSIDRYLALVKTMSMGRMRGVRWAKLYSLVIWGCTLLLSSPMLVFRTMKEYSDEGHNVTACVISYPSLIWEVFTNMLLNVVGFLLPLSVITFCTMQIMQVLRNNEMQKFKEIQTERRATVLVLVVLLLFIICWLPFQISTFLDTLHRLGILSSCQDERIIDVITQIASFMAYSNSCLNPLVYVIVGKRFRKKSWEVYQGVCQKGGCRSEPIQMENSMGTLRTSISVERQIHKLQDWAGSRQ

T2: human kinin B1R (Homo sapiens, UniProt P46663)
T2 construct: expressed in transfected cells
T2 sequence (P46663 1-353): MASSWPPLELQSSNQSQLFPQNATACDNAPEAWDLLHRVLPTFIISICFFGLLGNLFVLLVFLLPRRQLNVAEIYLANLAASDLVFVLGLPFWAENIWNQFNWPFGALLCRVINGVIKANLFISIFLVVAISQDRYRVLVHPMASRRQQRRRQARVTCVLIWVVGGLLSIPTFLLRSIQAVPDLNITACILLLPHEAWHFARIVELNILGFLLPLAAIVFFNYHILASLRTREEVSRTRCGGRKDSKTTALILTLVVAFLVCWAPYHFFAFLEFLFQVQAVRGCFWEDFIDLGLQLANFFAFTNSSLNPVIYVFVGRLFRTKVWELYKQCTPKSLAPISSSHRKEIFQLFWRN

B1: ANX-005: C1q function blocking humanized IgG4 mAb (Annexon Biosciences) (antibody, chains of the INN, looked up, V domains shown)
VH: QVQLVQSGAELKKPGASVKVSCKSSGYHFTSYWMHWVKQAPGQGLEWIGVIHPNSGSINYNEKFESRVTITVDKSTSTAYMELSSLRSEDTAVYYCAGERDSTEVLPMDYWGQGTTVTVSS
VL: DVQITQSPSSLSASLGERATINCRASKSINKYLAWYQQKPGKAPKLLIYSGSTLQSGIPARFSGSGSGTDFTLTISSLEPEDFAMYYCQQHNEYPLTFGQGTKLEIK

What was measured:
human kinin B2R = biological target: T1, human kinin B2R; assay: Competition binding assay on HEK293 cells stably expressing human kinin B2R, radioligand [3H]BK; conditions: displacement of [3H]BK, read-out: hB2R IC50
Procedure: (§1) Competition binding assays were carried out essentially as described previously. Briefly, HEK293 cells stably expressing either human kinin B1R or B2R were grown in 24-well plates and incubated with 4 nM [^3H]Lys[[…]]desArg^9BK (for B1R) or with 1 nM [^3H]BK/well (for B2R) in serum-free DMEM for 1-2 h in the absence or presence of increasing concentrations of competitors ([…]-10^-5 M for peptides; 10^-10-10^-4 g/mL for peptides-coupled NPs). Radioactivity of samples was measured by a β-scintillation counter (PerkinElmer, Woodbridge, ON, Canada). Binding affinities of compounds were expressed in terms of IC50 values-the concentrations of competing compounds (i.e., free peptides, TMC-peptides conjugates and peptides coupled to NPs) causing 50% displacement of specific binding of the radioligand. Data are means of 2-3 independent experiments.

human kinin B1R = biological target: T2, human kinin B1R; assay: Competition binding assay on HEK293 cells stably expressing human kinin B1R, radioligand [3H]Lys[Leu8]desArg9BK; conditions: displacement of radioligand, read-out: hB1R IC50
Procedure: as §1

[1] = set-up: method as in PMID 30837797; conditions: in rodents; cited from earlier work

Row | Molecule | IC50 (human kinin B2R) | IC50 (human kinin B1R) | half-life (t½) [1]
1 | N=C(N)NCCC[C@H](NC(=O)[C@H](Cc1cccs1)NC(=O)CN(C(=O)[C@H](CO)NC(=O)[C@H](Cc1cccs1)NC(=O)CNC(=O)[C@@H]1C[C@@H](O)CN1C(=O)[C@@H]1CCCN1C(=O)[C@H](CCCNC(=N)N)NC(=O)CCNC(=O)CCS)C1CCCCC1)C(=O)O [MAB7053, Mpa-βAla-Arg-Pro-Hyp-Gly-Thi-Ser-^NChg-Thi-Arg-OH] ([Mpa][βAla]RP[Hyp]G[2Thi]S[Gly(N-cHex)][2Thi]R-OH) | 1180 nM |  | 
2 | N=C(N)NCCC[C@H](NC(=O)[C@H](CCCCN)NC(=O)CCNC(=O)CCS)C(=O)N1CCC[C@H]1C(=O)N1CCC[C@H]1C(=O)NCC(=O)N[C@@H](Cc1ccccc1)C(=O)N[C@@H](CO)C(=O)N1CCC[C@H]1C(=O)N[C@H](Cc1ccccc1)C(=O)O [MAB7108, Mpa-βAla-Lys-Arg-Pro-Pro-Gly-Phe-Ser-Pro-DPhe-OH] |  | 0.8 nM | 
3 | CC[C@H](C)[C@H](NC(=O)[C@@H](Cc1ccc2ccccc2c1)NC(=O)[C@H](CO)NC(=O)C(C)(Cc1ccccc1)NC(=O)CNC(=O)[C@@H]1CCCN1C(=O)[C@@H]1C[C@@H]2CCCC[C@@H]2N1C(=O)[C@H](CCCNC(=N)N)NC(=O)[C@H](CCCN)NC(=O)CCNC(=O)CCS)C(=O)O (stereo partly drawn) [MAB7122, Mpa-βAla-Orn-Arg-Oic-Pro-Gly-(αMe)Phe-Ser-DβNal-Ile-OH] ([Mpa][βAla][Orn]R[Oic]PG[ξαMeF]S[d2Nal]I-OH) |  | 10 nM | 
4 | CNCC(=O)N[C@@H](CCCCN)C(=O)N[C@@H](CCCNC(=N)N)C(=O)N1CCC[C@H]1C(=O)N1CCC[C@H]1C(=O)NCC(=O)N[C@@H](Cc1ccccc1)C(=O)N[C@@H](CO)C(=O)N1CCC[C@H]1C(=O)N[C@H](Cc1ccccc1)C(=O)O [NG29, Sar-Lys-Arg-Pro-Pro-Gly-Phe-Ser-Pro-DPhe-OH] | > 10000 nM | 0.5 nM | 
5 | N=C(N)NCCC[C@H](NC(=O)[C@H](Cc1cccs1)NC(=O)CN(C(=O)[C@H](CO)NC(=O)[C@H](Cc1cccs1)NC(=O)CNC(=O)[C@@H]1C[C@@H](O)CN1C(=O)[C@@H]1CCCN1C(=O)[C@@H](N)CCCNC(=N)N)C1CCCCC1)C(=O)O [NG291, H-Arg-Pro-Hyp-Gly-Thi-Ser-^NChg-Thi-Arg-OH] (H-RP[Hyp]G[2Thi]S[Gly(N-cHex)][2Thi]R-OH) | 2 nM | > 10000 nM | 
6 | CC[C@H](C)[C@H](NC(=O)[C@@H](Cc1ccc2ccccc2c1)NC(=O)[C@H](CO)NC(=O)C(C)(Cc1ccccc1)NC(=O)CNC(=O)[C@@H]1CCCN1C(=O)[C@@H]1C[C@@H]2CCCC[C@@H]2N1C(=O)[C@H](CCCNC(=N)N)NC(=O)[C@H](CCCN)NC(C)=O)C(=O)O (stereo partly drawn) [R954, AcOrn-Arg-Oic-Pro-Gly-(αMe)Phe-Ser-DβNal-Ile-OH] (Ac-[Orn]R[Oic]PG[ξαMeF]S[d2Nal]I-OH) | > 10000 nM | 2 nM | 
7 | TRIOZAN™-MAB7053: TRIOZAN (trimethyl chitosan) conjugated with 7 equivalents of B2R agonist peptide MAB7053 (RPPGXSXXR; Residue 3 is Hyp (trans-4-hydroxy-L-Pro); residues 5 and 8 are Thi (alpha-(2-thienyl)-L-Ala); residue 7 is N-cyclohexyl-Gly; free C-terminal acid; N-terminal Mpa-betaAla spacer, thioether-linked via M) | 10600 nM |  | 
8 | B1 |  |  | ~ 18 h

From paper PMC10343654, “Evaluation of Novel B1R/B2R Agonists Containing TRIOZAN™ Nanoparticles for Targeted Brain Delivery of Antibodies in a Mouse Model of Alzheimer Disease” (Molecules, 2023)
